One series relates to BaF3 parent cell. The series is described as follows: CCK-8 cell proliferation, BaF3 parent cell. In kind it is cell-based. As to conditions: Mus musculus, BaF3; CCK-8, 72 hours; read-out: Average value of IC50 of inhibition against cells growth, BaF3 parent cell. An excerpt:
(§1) Ba/F3 cells were obtained from Deutsche Sammlung von Mikroorganismen und Zellkulturen GmbH (DSMZ). Ba/F3 cells stably expressing EGFR19del/T790M/C797S or EGFR L858R/T790M/C797S were generated by infecting parental cells with corresponding retroviruses. PC-9-OR was a tumor cell model obtained by simultaneously knocking in T790M and C797S mutations into 19del-activating mutation-dependent PC-9 tumor cells using CRISPR technology. This model, which proliferated dependent on EGFR19del/T790M/C797S resistance mutation, was used to evaluate the inhibitory activity of compounds against EGFR19del/T790M/C797S resistance mutants (Cancer Science. 2022; 113:709-720). All cells used in the study were verified by short tandem repeat (STR) analysis conducted by Genesky.
(§2) Tumor cell viability was assessed using a CCK-8 cell counting kit (A311-01/02, Vazyme, Nanjing, China). Cells were seeded at a density of 3000 cells per well into 96-well plates and cultured overnight. Subsequently, the cells were treated with compounds of different concentrations and incubated for 72 hours. After 72 hours, 10 μL of CCK-8 solution was added to each well. The plates were then returned to the incubator and incubated at 37° C. for 2 hours. The absorbance was measured at 450 nm using a microplate reader. A calibration curve was constructed using data obtained from wells containing known numbers of viable cells.

For series [1], the target named is BaF3-EGFR (L858R/T790M/C797S) (Homo sapiens, UniProt P00533, T790M/C797S/L858R, cells depend on it). Briefly: CCK-8 cell proliferation, BaF3-EGFR(L858R/T790M/C797S). In kind it is cell-based. As to conditions: CCK-8, 72 hours; read-out: Average value of IC50 of inhibition against EGFR-mutant cells growth, BaF3-EGFR (L858R/T790M/C797S). How it is done:
(§3) Ba/F3 cells were obtained from Deutsche Sammlung von Mikroorganismen und Zellkulturen GmbH (DSMZ). […] All cells used in the study were verified by short tandem repeat (STR) analysis conducted by Genesky.
as §2

Series [2] is described as follows: Pharmacokinetic parameters in rats. It is filed as in vivo. As to conditions: male, Sprague-Dawley, plasma, rat. How it is done: Sprague-Dawley rats (males, 3 per group), weighing 180 g to 220 g, were administered test compounds intravenously and orally at doses of 1 mg/kg and 5 mg/kg, respectively. The compounds were dissolved in a mixed solvent (5% DMSO+10% Solutol+85% PBS) for intravenous injection. 0.5% CMC-Na solution (800 cps to 1200 cps) was used as a suspension agent for oral administration. At designated time points, 0.2 mL of blood samples were collected via the jugular vein and placed into tubes containing K2-EDTA, stored on ice, and then centrifuged. Sampling intervals for the injection group were 0.083, 0.25, 0.5, 1, 2, 4, 8, and 24 hours, while for the oral group, sampling intervals were 0.25, 0.5, 1, 2, 4, 6, 8, and 24 hours. The blood samples were centrifuged at 6800 g for 6 minutes at 2° C. to 8° C. within 1 hour after collection and stored frozen at approximately −80° C. Subsequently, 200 μL of MeOH was used to precipitate 20 μL of plasma samples containing 100 ng/mL IS. The mixture was vortexed for 1 minute and then centrifuged at 18000 g for 7 minutes. 200 μL of the supernatant was transferred to a 96-well plate, and 1 μL of the supernatant sample was injected for LC-MS/MS analysis. Finally, Phoenix WinNonlin7.0 software was used to calculate the pharmacokinetic (PK) parameters.

The test system of series [3] is PC-9-OR (19del/T790M/C797S). The series is described as follows: CCK-8 cell proliferation, PC-9-OR. It is filed as cell-based. As to conditions: PC9-OR; CCK-8, 72 hours; read-out: Average value of IC50 of inhibition against EGFR-mutant cells growth, PC-9-OR (19del/T790M/C797S).
Excerpt: as §1, §2

The target in the next series is T1, EGFR^WT (Homo sapiens, UniProt P00533).
T1 construct: purchased Eurofins
Briefly: ELISA kinase activity inhibition, wild-type EGFR. In kind it is biochemical. As to conditions: ATP 5 μM, read-out: The average IC50 value (nM) for inhibiting the activity of different tyrosine kinases, EGFR^WT.

In a further series the target is EGFR^L858R/T790M/C797S (Homo sapiens, UniProt P00533, C797S/L858R/T790M). The series is described as follows: ELISA kinase activity inhibition, EGFR L858R/T790M/C797S. To be noted: ATP 5 μM, read-out: The average IC50 value (nM) for inhibiting the activity of different tyrosine kinases, EGFR^L858R/T790M/C797S. It is filed as biochemical. On the technique in general: An ELISA detects its analyte on a solid surface through an enzyme-linked reagent.

The target in series [4] is BaF3-EGFR (19del/T790M/C797S) (Homo sapiens, UniProt P00533, T790M/C797S, cells depend on it, form not given). Briefly: CCK-8 cell proliferation, BaF3-EGFR(19del/T790M/C797S). In kind it is cell-based. As to conditions: CCK-8, 72 hours; read-out: Average value of IC50 of inhibition against EGFR-mutant cells growth, BaF3-EGFR (19del/T790M/C797S). As to the method:
as §3, §2

The target in a further series is T2, EGFR^19del/T790M/C797S (Homo sapiens, UniProt P00533, T790M/C797S, form not given).
T2 construct: fused on or other part: Probably a GST tag on the cytoplasmic fragment, as in the vendor's product
The series is described as follows: ELISA kinase activity inhibition, EGFR 19del/T790M/C797S. In kind it is biochemical. As to conditions: ATP 5 μM, read-out: The average IC50 value (nM) for inhibiting the activity of different tyrosine kinases, EGFR^19del/T790M/C797S.

Data on two compounds can be found in patent US20260184725A1, “CYCLIC 2-AMINOPYRIMIDINE COMPOUND AND PHARMACEUTICAL COMPOSITION AND USE THEREOF” (SHANGHAI INSTITUTE OF ORGANIC CHEMISTRY, CHINESE ACADEMY OF …, priority 2023, published 2026).

For orientation: Cmax means the maximum level reached in the sampled fluid or tissue. By clearance is commonly meant a measure of how efficiently the substance is removed, as volume per time. Read a low clearance as a low capacity for elimination. The half-life is how long it takes for the measured level to halve. By bioavailability is commonly meant dose-corrected exposure relative to a reference, in per cent.

BaF3-EGFR (L858R/T790M/C797S), sequence (P00533 whole entry T790M/C797S/L858R): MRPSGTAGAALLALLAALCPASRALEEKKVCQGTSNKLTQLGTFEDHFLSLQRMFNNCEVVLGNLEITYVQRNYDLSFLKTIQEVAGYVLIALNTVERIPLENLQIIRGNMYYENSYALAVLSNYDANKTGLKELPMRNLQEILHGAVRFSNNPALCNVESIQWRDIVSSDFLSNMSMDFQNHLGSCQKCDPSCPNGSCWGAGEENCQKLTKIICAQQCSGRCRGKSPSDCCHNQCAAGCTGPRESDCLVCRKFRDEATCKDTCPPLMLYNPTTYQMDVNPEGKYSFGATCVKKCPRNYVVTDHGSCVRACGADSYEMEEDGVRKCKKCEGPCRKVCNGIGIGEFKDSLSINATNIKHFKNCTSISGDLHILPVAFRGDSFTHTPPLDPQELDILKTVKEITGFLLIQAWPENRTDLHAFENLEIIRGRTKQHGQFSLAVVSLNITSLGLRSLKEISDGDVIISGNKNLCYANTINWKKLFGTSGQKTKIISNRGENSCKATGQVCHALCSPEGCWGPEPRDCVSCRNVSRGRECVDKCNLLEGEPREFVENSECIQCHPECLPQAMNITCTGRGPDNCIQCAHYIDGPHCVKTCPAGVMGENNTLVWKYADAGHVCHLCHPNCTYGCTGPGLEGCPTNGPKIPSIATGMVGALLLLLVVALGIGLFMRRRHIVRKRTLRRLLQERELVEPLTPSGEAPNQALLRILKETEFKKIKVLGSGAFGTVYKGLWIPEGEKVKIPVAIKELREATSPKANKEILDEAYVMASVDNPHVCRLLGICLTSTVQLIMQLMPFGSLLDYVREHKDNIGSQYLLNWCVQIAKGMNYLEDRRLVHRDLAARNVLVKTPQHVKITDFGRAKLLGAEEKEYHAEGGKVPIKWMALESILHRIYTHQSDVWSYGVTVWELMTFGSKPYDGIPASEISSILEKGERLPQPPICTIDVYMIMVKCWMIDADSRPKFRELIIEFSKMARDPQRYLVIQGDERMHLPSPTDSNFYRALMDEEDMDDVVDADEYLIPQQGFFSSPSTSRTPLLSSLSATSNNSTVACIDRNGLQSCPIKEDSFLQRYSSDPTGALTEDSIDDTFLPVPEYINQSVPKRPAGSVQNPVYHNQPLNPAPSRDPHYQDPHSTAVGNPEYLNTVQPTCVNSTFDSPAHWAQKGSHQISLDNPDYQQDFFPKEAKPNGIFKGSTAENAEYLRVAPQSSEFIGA
EGFR^L858R/T790M/C797S, sequence (P00533 25-1210 T790M/C797S/L858R): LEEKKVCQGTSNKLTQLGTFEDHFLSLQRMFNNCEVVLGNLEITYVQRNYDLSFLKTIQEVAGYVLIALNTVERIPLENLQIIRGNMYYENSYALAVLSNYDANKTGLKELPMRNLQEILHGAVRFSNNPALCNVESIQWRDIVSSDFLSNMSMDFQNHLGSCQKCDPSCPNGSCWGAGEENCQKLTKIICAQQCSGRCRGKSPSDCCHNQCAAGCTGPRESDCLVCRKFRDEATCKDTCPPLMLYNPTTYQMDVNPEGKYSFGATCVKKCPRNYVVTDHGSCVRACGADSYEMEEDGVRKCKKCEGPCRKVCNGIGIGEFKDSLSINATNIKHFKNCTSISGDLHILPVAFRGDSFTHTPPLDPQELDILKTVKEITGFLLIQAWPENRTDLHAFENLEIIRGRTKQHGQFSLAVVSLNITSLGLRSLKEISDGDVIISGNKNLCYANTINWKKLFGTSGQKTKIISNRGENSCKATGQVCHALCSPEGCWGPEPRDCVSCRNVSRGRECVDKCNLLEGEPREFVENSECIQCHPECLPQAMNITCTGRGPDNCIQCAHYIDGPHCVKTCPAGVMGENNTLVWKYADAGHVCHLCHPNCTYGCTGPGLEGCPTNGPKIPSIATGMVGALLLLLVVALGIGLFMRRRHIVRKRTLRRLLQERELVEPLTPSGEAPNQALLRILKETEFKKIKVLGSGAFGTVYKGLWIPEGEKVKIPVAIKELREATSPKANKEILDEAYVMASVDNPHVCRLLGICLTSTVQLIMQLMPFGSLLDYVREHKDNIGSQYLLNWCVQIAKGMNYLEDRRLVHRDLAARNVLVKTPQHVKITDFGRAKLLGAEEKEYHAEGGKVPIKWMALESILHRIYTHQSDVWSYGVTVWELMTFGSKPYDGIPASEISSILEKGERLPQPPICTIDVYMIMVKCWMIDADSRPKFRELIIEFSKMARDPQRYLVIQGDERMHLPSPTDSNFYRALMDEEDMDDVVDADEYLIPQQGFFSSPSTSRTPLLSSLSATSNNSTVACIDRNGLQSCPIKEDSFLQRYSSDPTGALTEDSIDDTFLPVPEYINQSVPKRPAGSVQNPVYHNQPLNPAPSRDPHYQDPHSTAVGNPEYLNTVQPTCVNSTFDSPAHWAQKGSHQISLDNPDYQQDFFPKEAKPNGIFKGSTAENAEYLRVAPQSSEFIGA
T1 sequence (P00533 25-1210): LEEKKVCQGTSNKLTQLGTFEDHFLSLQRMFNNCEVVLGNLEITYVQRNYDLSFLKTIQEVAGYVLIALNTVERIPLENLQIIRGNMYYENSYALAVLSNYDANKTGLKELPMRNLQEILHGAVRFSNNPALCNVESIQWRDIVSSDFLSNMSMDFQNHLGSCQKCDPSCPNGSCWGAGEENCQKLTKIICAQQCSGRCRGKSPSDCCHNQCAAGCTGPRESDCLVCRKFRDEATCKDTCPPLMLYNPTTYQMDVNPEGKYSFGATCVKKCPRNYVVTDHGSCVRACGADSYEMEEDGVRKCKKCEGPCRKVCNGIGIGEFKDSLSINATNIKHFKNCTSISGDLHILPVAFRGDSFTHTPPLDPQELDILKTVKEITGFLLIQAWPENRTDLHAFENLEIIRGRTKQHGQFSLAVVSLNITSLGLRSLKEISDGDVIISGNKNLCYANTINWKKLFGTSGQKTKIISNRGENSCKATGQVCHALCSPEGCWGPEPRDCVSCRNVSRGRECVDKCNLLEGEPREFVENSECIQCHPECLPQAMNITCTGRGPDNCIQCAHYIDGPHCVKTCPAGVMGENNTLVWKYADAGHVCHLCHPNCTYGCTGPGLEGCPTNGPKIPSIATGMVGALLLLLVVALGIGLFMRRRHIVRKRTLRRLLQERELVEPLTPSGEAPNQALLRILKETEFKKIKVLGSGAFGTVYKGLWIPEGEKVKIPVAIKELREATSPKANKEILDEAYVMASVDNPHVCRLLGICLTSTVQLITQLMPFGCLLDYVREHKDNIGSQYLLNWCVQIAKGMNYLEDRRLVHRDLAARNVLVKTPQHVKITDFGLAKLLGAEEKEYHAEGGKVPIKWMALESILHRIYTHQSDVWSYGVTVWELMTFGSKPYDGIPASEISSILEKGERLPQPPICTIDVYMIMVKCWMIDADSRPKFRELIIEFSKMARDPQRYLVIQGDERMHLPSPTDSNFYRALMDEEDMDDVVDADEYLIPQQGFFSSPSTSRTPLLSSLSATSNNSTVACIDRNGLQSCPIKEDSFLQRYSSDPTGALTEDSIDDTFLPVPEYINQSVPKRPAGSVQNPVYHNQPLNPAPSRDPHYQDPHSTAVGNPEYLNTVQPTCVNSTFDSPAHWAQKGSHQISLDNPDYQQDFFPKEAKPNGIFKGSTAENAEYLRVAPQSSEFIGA
T2 sequence (P00533 with tags, fused parts or gaps DEL746-750/T790M/C797S, form open): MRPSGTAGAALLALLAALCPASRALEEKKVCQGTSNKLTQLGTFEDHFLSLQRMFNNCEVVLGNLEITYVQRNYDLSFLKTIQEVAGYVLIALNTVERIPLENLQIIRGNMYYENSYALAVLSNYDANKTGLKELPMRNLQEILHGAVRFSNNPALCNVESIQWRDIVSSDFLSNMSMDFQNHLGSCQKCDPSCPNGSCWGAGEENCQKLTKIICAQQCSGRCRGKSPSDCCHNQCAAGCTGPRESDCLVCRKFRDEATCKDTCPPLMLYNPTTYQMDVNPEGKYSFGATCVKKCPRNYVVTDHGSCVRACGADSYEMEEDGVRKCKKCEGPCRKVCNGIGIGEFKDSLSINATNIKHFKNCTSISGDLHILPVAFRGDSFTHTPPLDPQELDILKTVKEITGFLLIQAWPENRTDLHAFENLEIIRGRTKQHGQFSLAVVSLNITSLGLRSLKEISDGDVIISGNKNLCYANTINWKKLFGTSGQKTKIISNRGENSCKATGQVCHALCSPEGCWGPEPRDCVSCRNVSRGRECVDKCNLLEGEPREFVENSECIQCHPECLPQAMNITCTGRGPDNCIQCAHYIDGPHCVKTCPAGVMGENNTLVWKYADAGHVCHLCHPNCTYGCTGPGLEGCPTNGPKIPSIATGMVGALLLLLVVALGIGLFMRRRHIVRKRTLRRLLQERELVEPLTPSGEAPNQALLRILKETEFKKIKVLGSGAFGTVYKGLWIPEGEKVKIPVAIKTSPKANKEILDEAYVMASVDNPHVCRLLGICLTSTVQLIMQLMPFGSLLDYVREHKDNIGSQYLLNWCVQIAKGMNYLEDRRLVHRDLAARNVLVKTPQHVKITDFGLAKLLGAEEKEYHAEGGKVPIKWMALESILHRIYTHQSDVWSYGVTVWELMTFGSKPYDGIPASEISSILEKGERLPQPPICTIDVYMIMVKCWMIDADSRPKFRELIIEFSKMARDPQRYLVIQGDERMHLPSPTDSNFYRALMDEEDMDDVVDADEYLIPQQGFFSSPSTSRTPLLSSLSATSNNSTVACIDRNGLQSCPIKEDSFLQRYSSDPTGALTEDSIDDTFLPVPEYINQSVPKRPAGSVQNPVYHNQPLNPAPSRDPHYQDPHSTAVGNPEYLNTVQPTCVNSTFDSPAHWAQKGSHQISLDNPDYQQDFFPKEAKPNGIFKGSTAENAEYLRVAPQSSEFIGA

In the case of `CCS(=O)(=O)n1cc2c3ccc(cc31)OCCCn1cc(cn1)-c1cc(c(OC)cc1N1CCOCC1)Nc1nccc-2n1` [HC9591, (Z)-1^1-Ethylsulfonyl-4^6-methoxy-4^4-morpholin-1^1H,5^1H-9-oxa-3-aza-1 (3,6)-indole-2(4,2)-pyrimidine-5(4,1) pyrazole-4(1,3)-benzenacyclononaphane], the IC50 with BaF3 parent cell was 1820 nM; in series [3], 269 nM; on EGFR^WT it was 632 nM; at EGFR^L858R/T790M/C797S it was 2 nM; at EGFR^19del/T790M/C797S, 1.7 nM. Moreover, the GI50 was found to be 301 nM in series [1] and 189 nM in series [4]. In addition, the Cmax in series [2] (IV 1 mg/kg) worked out at 1570 ± 220 ng/mL; in series [2] (PO 5 mg/kg), 330 ± 56.5 ng/mL. Moreover, in series [2] (IV 1 mg/kg), the clearance is 9.2 ± 2.1 mL/min/kg. The results for the half-life in series [2] (IV 1 mg/kg) and in series [2] (PO 5 mg/kg) were 7.1 ± 0.95 h and 8.13 ± 0.08 h, respectively. In series [2] (PO 5 mg/kg, read-out: F (oral bioavailability)), the bioavailability came to 39.6 ± 9%.
Regarding `CCS(=O)(=O)n1cc2c3ccc(cc31)OCCCn1cc(cn1)-c1cc(c(OC)cc1N1CCC(N3CCN(C)CC3)CC1)Nc1nccc-2n1` [HC9594, (Z)-1^1-ethylsulfonyl-4^6-methoxy-4^4-(4-methylpiperazin-1-yl) piperidin-1-yl)-1^1H,5^1H-9-oxa-3-aza-1(3,6)-indole-2(4,2)-pyrimidine-5(4,1)-pyrazolol-4(1,3)-benzenacyclononaphane], the IC50 in the series with BaF3 parent cell was greater than 10000 nM; in series [3], 925 nM; on EGFR^WT, 112 nM; on EGFR^L858R/T790M/C797S, 2.2 nM; on EGFR^19del/T790M/C797S, 1.7 nM. The GI50 in series [1] was found to be 735 nM; in series [4] it was 1220 nM.
